Reference: patent US20070275854A1, “Agrochemical Composition Containing Phosphoric Acid Ester” (priority 2004, published 2007)

Key:
Type in all cases: in vivo
Avena fatura L. (AVEFA) = assay: Glasshouse herbicide efficacy of clodinafop propargyl (Topic 240) with adjuvants, fresh weight after 21 days; conditions: clodinafop propargyl 5 g a.i./ha (Topic 240 in water), adjuvant where named 0.25% w/v, plants in 2-3-leaf stage, untreated 17.48 g
Description: Test formulations are prepared by mixing the commercially available formulation Topic 240, which contains 240 g of clodinafop propargyl per liter of formulation, as stated by the manufacturer (Syngenta), with water. The adjuvants are added to this emulsion in an amount corresponding to a concentration of 0.25% w/v (2.5 g/l). These test solutions are applied in various concentrations (concentration stated in g a.i/ha, where a.i. means active ingredient) to the plant species Avena fatura L. (AVEFA) while they are in the 2-3-leaf stage in a glasshouse as shown in the following table.
After 21 days, the efficacy of the herbicidal formulation is assessed by weighing the plant parts which are still present (fresh weight).

[1] = test system: Lolium perenne L. (LOLPE); assay: Glasshouse herbicide efficacy of imazethapyrammonium with adjuvants, fresh weight after 14 days; conditions: imazethapyrammonium 4.0 g ae/ha, adjuvant where named 0.25% w/v, plants in 2-3-leaf stage, untreated 13.97 g
Description: (§1) Test formulations are prepared by adjusting an aqueous solution of imazethapyrammonium to a concentration of 5 mmol. The adjuvants are added to this solution in an amount corresponding to a concentration of 0.25% w/v (2.5 g/l). These test solutions are applied in various concentrations (concentration stated g ae/ha, where ae means acidic equivalent) to the plant species Solanum Nigrum L. (SOLNI) and Lolium perenne L. (LOLPE) while they are in the 2-3-leaf stage in a glasshouse as shown in the following table.
(§2) After 14 days, the efficacy of the herbicidal formulation is assessed by weighing the plant parts still present (fresh weight).

[2] = test system: Solanum Nigrum L. (SOLNI); assay: as above; conditions: imazethapyrammonium 4.0 g ae/ha, adjuvant where named 0.25% w/v, plants in 2-3-leaf stage, untreated 15.42 g
Description: as §1, §2

Compound	fresh weight [g] AVEFA (Avena fatura L. (AVEFA))	fresh weight [g] LOLPE [1]	fresh weight [g] SOLNI [2]
C#CCOC(=O)[C@@H](C)Oc1ccc(Oc2ncc(Cl)cc2F)cc1 [Clodinafop propargyl, clodinafop propargyl]	15.69 g	–	–
CCc1cnc(C2=NC(C)(C(C)C)C(=O)N2)c(C(=O)O)c1.N (stereo not drawn) [Imazethapyrammonium, imazethapyrammonium]	–	13.40 g	10.61 g
